Data reported in PubChem BioAssay AID248 (DTP/NCI, 2004).
“And” between values parts separate entries of the source, which are not always exact repeats. Equal values may be shown once. Inconclusive results and toxic doses are left out.

System: L1210 leukemia ip in BDF1 mice, survival T/C
Assay: NCI In Vivo Anticancer Drug Screen. Data for tumor model L1210 Leukemia (intraperitoneal) in B6D2F1 (BDF1) mice
Conditions: endpoint: mean survival time, higher = longer survival
In short: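 In this screen, tumor-bearing mice given compound are compared to those given vehicle, and their survival values are reported as a treated-to-control quotient.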

[1] = dose: 100.0 mg/kg/injection, schedule: Q04DX003 (ip), vehicle: saline with Tween-80
[2] = dose: 200.0 mg/kg/injection, schedule: Q04DX003 (ip), vehicle: saline with Tween-80
[3] = dose: 400.0 mg/kg/injection, schedule: Q04DX003 (ip), vehicle: saline with Tween-80
[4] = dose: 100.0 mg/kg/injection, schedule: Q04DX002 (ip), vehicle: Klucel (hydroxypropylcellulose) (HPC)
[5] = dose: 200.0 mg/kg/injection, schedule: Q04DX002 (ip), vehicle: Klucel (hydroxypropylcellulose) (HPC)
[6] = dose: 400.0 mg/kg/injection, schedule: Q04DX002 (ip), vehicle: Klucel (hydroxypropylcellulose) (HPC)
[7] = dose: 100.0 mg/kg/injection, schedule: Q01DX001 (ip), vehicle: carboxymethylcellulose (CMC)
[8] = dose: 200.0 mg/kg/injection, schedule: Q01DX001 (ip), vehicle: carboxymethylcellulose (CMC)
[9] = dose: 400.0 mg/kg/injection, schedule: Q01DX001 (ip), vehicle: carboxymethylcellulose (CMC)
[10] = dose: 100.0 mg/kg/injection, schedule: Q01DX001 (ip), vehicle: Klucel (hydroxypropylcellulose) (HPC)
[11] = dose: 200.0 mg/kg/injection, schedule: Q01DX001 (ip), vehicle: Klucel (hydroxypropylcellulose) (HPC)
[12] = dose: 100.0 mg/kg/injection, schedule: Q04DX003 (ip), vehicle: saline
[13] = dose: 200.0 mg/kg/injection, schedule: Q04DX003 (ip), vehicle: saline
[14] = dose: 100.0 mg/kg/injection, schedule: Q01DX009 (ip), vehicle: Klucel (hydroxypropylcellulose) (HPC)
[15] = dose: 200.0 mg/kg/injection, schedule: Q01DX009 (ip), vehicle: Klucel (hydroxypropylcellulose) (HPC)

C=CCCC(=O)OC(C)(C)C
T/C (dose: 25.0 mg/kg/injection, schedule: Q01DX009 (ip), vehicle: water): 96 % of control
T/C (dose: 50.0 mg/kg/injection, schedule: Q01DX009 (ip), vehicle: water): 96 % of control
T/C (dose: 100.0 mg/kg/injection, schedule: Q01DX009 (ip), vehicle: water): 98 % of control
T/C (dose: 200.0 mg/kg/injection, schedule: Q01DX009 (ip), vehicle: water): 97 % of control

CCOC(=O)OCCCN(C)C
T/C (dose: 100.0 mg/kg/injection, schedule: Q01DX009 (ip), vehicle: saline with Tween-80): 94 % of control
T/C [1]: 100 % of control
T/C (dose: 200.0 mg/kg/injection, schedule: Q01DX009 (ip), vehicle: saline with Tween-80): 94 % of control
T/C [2]: 93 % of control
T/C (dose: 400.0 mg/kg/injection, schedule: Q01DX009 (ip), vehicle: saline with Tween-80): 90 % of control
T/C [3]: 96 % of control

CN(Cc1ccccc1)C(=O)Nc1ccccc1
T/C [4]: 98 % of control
T/C [5]: 103 % of control
T/C [6]: 95 % of control

O=C(NCCCl)Nc1ccc(Br)cc1
T/C [7]: 101 % of control
T/C [8]: 98 % of control
T/C [9]: 115 % of control

COC(=O)C1=C(C(=O)OC)C2CCC1C2
T/C (dose: 100.0 mg/kg/injection, schedule: Q01DX009 (ip), vehicle: other): 103 % of control
T/C (dose: 200.0 mg/kg/injection, schedule: Q01DX009 (ip), vehicle: other): 103 % of control
T/C (dose: 400.0 mg/kg/injection, schedule: Q01DX009 (ip), vehicle: other): 98 % of control

O=C(Cl)C1CCC1C(=O)Cl (stereo not given)
T/C (dose: 75.0 mg/kg/injection, schedule: Q01DX001 (ip), vehicle: carboxymethylcellulose (CMC)): 102 % of control
T/C (dose: 150.0 mg/kg/injection, schedule: Q01DX001 (ip), vehicle: carboxymethylcellulose (CMC)): 91 % of control

O=C([O-])c1ccccc1[S+](c1ccccc1)c1ccccc1
T/C (dose: 18.0 mg/kg/injection, schedule: Q04DX002 (ip), vehicle: saline with Tween-80): 104 % of control

COc1cc(C(=O)NC(=S)NCc2ccncc2)cc(OC)c1OC
T/C [4]: 96 % of control
T/C [5]: 88 % of control

O=C(O)c1cccc(C#Cc2ccccc2)c1
T/C [10]: 97 % of control
T/C [11]: 103 % of control

CCc1c(N)nc(=O)[nH]c1C(=O)O
T/C [10]: 115 % of control
T/C (dose: 100.0 mg/kg/injection, schedule: Q04DX003 (ip), vehicle: Klucel (hydroxypropylcellulose) (HPC)): 96 % of control
T/C [11]: 118 % of control
T/C (dose: 200.0 mg/kg/injection, schedule: Q04DX003 (ip), vehicle: Klucel (hydroxypropylcellulose) (HPC)): 100 % of control
T/C (dose: 400.0 mg/kg/injection, schedule: Q01DX001 (ip), vehicle: Klucel (hydroxypropylcellulose) (HPC)): 117 % of control
T/C (dose: 400.0 mg/kg/injection, schedule: Q04DX003 (ip), vehicle: Klucel (hydroxypropylcellulose) (HPC)): 104 % of control

Nc1[nH]c(=S)ncc1-c1cccc(Cl)c1
T/C (dose: 50.0 mg/kg/injection, schedule: Q01DX001 (ip), vehicle: Klucel (hydroxypropylcellulose) (HPC)): 110 % of control
T/C [10]: 117 % of control
T/C [11]: 114 % of control

O=C(CN1CC1)NCCCCCCCNC(=O)CN1CC1
T/C (dose: 6.5 mg/kg/injection, schedule: Q01DX001 (ip), vehicle: carboxymethylcellulose (CMC)): 120 % of control
T/C (dose: 7.0 mg/kg/injection, schedule: Q01DX009 (ip), vehicle: carboxymethylcellulose (CMC)): 94 % of control
T/C (dose: 9.7 mg/kg/injection, schedule: Q01DX001 (ip), vehicle: carboxymethylcellulose (CMC)): 123 % of control
T/C (dose: 11.0 mg/kg/injection, schedule: Q01DX009 (ip), vehicle: carboxymethylcellulose (CMC)): 100 % of control
T/C (dose: 16.0 mg/kg/injection, schedule: Q01DX009 (ip), vehicle: carboxymethylcellulose (CMC)): 94 % of control
T/C (dose: 25.0 mg/kg/injection, schedule: Q01DX009 (ip), vehicle: carboxymethylcellulose (CMC)): 103 % of control
T/C (dose: 33.0 mg/kg/injection, schedule: Q01DX001 (ip), vehicle: carboxymethylcellulose (CMC)): 154 % of control

COc1cc(C)ccc1OC(=O)Nc1ccccc1
T/C [4]: 109 % of control
T/C [5]: 113 % of control
T/C [6]: 106 % of control

CCOC(=O)Cc1nnn(C)n1
T/C [12]: 93 % of control
T/C [13]: 90 % of control

N[P+](c1ccccc1)(c1ccccc1)c1ccccc1
T/C (dose: 12.5 mg/kg/injection, schedule: Q04DX002 (ip), vehicle: Klucel (hydroxypropylcellulose) (HPC)): 109 % of control
T/C (dose: 25.0 mg/kg/injection, schedule: Q04DX002 (ip), vehicle: Klucel (hydroxypropylcellulose) (HPC)): 88 % of control

Cc1ccnc(SC#N)n1
T/C (dose: 5.0 mg/kg/injection, schedule: Q01DX001 (ip), vehicle: other): 105 % of control
T/C (dose: 10.0 mg/kg/injection, schedule: Q01DX001 (ip), vehicle: other): 105 % of control

Cc1cnc(SCc2ccc(Cl)cc2)nc1N(C)C
T/C (dose: 25.0 mg/kg/injection, schedule: Q01DX Z (ip), vehicle: methylcellulose (MC)): 90 % of control
T/C (dose: 50.0 mg/kg/injection, schedule: Q01DX Z (ip), vehicle: methylcellulose (MC)): 100 % of control

CCOC(=O)CNCc1cccnc1
T/C (dose: 100.0 mg/kg/injection, schedule: Q01DX009 (ip), vehicle: saline): 97 % of control
T/C [12]: 95 % of control
T/C (dose: 200.0 mg/kg/injection, schedule: Q01DX009 (ip), vehicle: saline): 94 % of control
T/C [13]: 87 % of control
T/C (dose: 400.0 mg/kg/injection, schedule: Q01DX009 (ip), vehicle: saline): 95 % of control
T/C (dose: 400.0 mg/kg/injection, schedule: Q04DX003 (ip), vehicle: saline): 102 % of control

C=CCCCCCCCCC(=O)N/N=C/c1ccccc1OC
T/C [4]: 110 % of control
T/C [5]: 104 % of control
T/C [6]: 110 % of control

COC(=O)C1=CNC=C(C(=O)OC)C1c1ccc(OC)cc1
T/C [1]: 95 % of control
T/C [2]: 96 % of control
T/C [3]: 95 % of control

CC(=O)c1cccc(NC(=O)OCC2CC3C=CC2C3)c1 (stereo not given)
T/C [14]: 112 % of control
T/C [15]: 104 % of control
T/C (dose: 400.0 mg/kg/injection, schedule: Q01DX009 (ip), vehicle: Klucel (hydroxypropylcellulose) (HPC)): 103 % of control

O=C1C=C2C=CC3CC2(O1)C1CCCCN31 (stereo not given)
T/C (dose: 10.0 mg/kg/injection, schedule: Q01DX001 (ip), vehicle: saline): 105 % of control
T/C (dose: 20.0 mg/kg/injection, schedule: Q01DX001 (ip), vehicle: saline): 100 % of control
T/C (dose: 100.0 mg/kg/injection, schedule: Q01DX001 (ip), vehicle: saline): 105 % of control and 102 % of control
T/C (dose: 200.0 mg/kg/injection, schedule: Q01DX001 (ip), vehicle: saline): 104 % of control and 102 % of control

COc1ccccc1CCO
T/C (dose: 50.0 mg/kg/injection, schedule: Q01DX001 (ip), vehicle: carboxymethylcellulose (CMC)): 86 % of control
T/C [7]: 98 % of control
T/C [8]: 98 % of control
T/C [9]: 98 % of control

CC1(C)N=C(N)N=C(N)N1c1ccc(Cl)c(C(F)(F)F)c1
T/C (dose: 8.33 mg/kg/injection, schedule: Q01DX009 (ip), vehicle: saline with Tween-80): 115 % of control
T/C (dose: 8.8 mg/kg/injection, schedule: Q04DX003 (ip), vehicle: saline with Tween-80): 107 % of control
T/C (dose: 12.5 mg/kg/injection, schedule: Q01DX009 (ip), vehicle: saline with Tween-80): 118 % of control
T/C (dose: 13.3 mg/kg/injection, schedule: Q04DX003 (ip), vehicle: saline with Tween-80): 104 % of control
T/C (dose: 20.0 mg/kg/injection, schedule: Q04DX003 (ip), vehicle: saline with Tween-80): 101 % of control
T/C (dose: 25.0 mg/kg/injection, schedule: Q01DX009 (ip), vehicle: saline with Tween-80): 116 % of control
T/C (dose: 30.0 mg/kg/injection, schedule: Q04DX003 (ip), vehicle: saline with Tween-80): 106 % of control
T/C (dose: 33.0 mg/kg/injection, schedule: Q01DX009 (ip), vehicle: saline with Tween-80): 118 % of control
T/C (dose: 45.0 mg/kg/injection, schedule: Q04DX003 (ip), vehicle: saline with Tween-80): 115 % of control
T/C (dose: 50.0 mg/kg/injection, schedule: Q01DX009 (ip), vehicle: saline with Tween-80): 98 % of control
T/C [1]: 108 % of control

Cc1cccc(C)c1-n1nnnc1N
T/C (dose: 50.0 mg/kg/injection, schedule: Q01DX009 (ip), vehicle: Klucel (hydroxypropylcellulose) (HPC)): 105 % of control
T/C [14]: 119 % of control
T/C [15]: 101 % of control
